The values below come from ChEMBL document CHEMBL1122661, “Vinylogous amino acid esters: a new class of inactivators for thiol proteases” (J Med Chem, 1984).

The source made the active and inactive calls. The rule behind the calls is not given here. Where a SMILES comes first, the peptide text is derived from it.

Data set [1] has as its target T1, Papain (Carica papaya, UniProt P00784).
T1 sequence (P00784 whole entry): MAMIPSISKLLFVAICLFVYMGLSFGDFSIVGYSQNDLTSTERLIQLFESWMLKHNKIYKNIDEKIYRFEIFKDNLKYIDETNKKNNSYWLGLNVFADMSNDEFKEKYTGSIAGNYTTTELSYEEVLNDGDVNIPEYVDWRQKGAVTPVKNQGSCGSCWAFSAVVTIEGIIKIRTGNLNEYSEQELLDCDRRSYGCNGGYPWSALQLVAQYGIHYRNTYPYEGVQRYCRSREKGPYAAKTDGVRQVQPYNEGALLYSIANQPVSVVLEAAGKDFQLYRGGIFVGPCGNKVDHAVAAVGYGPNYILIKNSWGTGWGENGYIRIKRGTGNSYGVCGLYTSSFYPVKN
In words: Inhibitory activity against papain; Weak competitive inhibitor.

Data set [2] is described as follows: Inhibition of hydrolysis of Z-Gly-NPby administration of the compound.
The target in data set [3] is T2, Papain (Carica papaya) (UniProt P00784).
T2 sequence (whole entry): T1 sequence (P00784 whole entry)
As to the kind of experiment: Inhibitory activity against papain; No detectab inactivation.

The target of data set [4] is T2, Papain (Carica papaya). In words: Pseudo first order rate constant against papain.
Data set [5] concerns the target T1, Papain. As to the kind of experiment: Inhibitory activity against papain.
A short description of data set [6]: Inhibition of hydrolysis of Z-Gly-NP by administration of the 1 uM compound; Markedly inhibited.
Substrate in data set [7]: O=C(O)CNC(=O)OCc1ccccc1
As to the kind of experiment: Papain-catalyzed hydrolysis was expressed as Km.

The Ki is the equilibrium dissociation constant of an inhibitor or competing ligand from its target. A high value points to lower affinity. Take `COC(=O)CCCNC(=O)C(Cc1ccccc1)NC(C)=O` (stereo not drawn): the Ki in data set [1] is more than 5 mM.

In the case of `CC(=O)N[C@@H](Cc1ccccc1)C(=O)NCC(N)=O` (Ac-Phe-Gly-NH2), in data set [2], the Ki came to 4.7 mM. In the case of `COC(=O)/C=C/C(Cc1ccccc1)NC(C)=O` (stereo not drawn), the inhibition result in data set [3] is “inactive”.

For the molecule `COC(=O)/C=C/CNC(=O)C(Cc1ccccc1)NC(C)=O` (stereo not drawn), in data set [4], the K2 is 0.00182 s⁻¹. The affinity in data set [5], expressed as Ki, was 0.026 mM. In data set [6], the inhibition entry is “Markedly inhibited”. The molecule `C=CCNC(=O)C(Cc1ccccc1)NC(C)=O` (stereo not drawn) displayed an inhibition constant (Ki) in data set [1] of more than 5 mM.

B1: Papain (Carica papaya), P00784 (protein)
chain: T1 sequence (P00784 whole entry)
The term Km denotes the substrate concentration at which the rate is half of its maximum. As to B1, the Michaelis-Menten constant (Km) in data set [7] was determined as 10.3 µM.
